# Laboratory results from patent US7494996B2 (priority 2000, dated 2009).
# Assays:
# Sphaerotheca fuliginea = experiment: Cucumber Powdery Mildew (CPM) protectant test in the greenhouse; format: in vivo; conditions: 100 is total disease control, 0 is no disease control; for Cucumber Powdery Mildew (CPM) protectant fungicide data, percent control: 300 g/ha
# In short: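 Compounds in acetone-methanol-water (1:1:2) sprayed onto cucumber cv. "Bush Champion" (cotyledons plus one true leaf, 13 days old), dried 4 h. Inoculated 1 day later with 2×10^5 spores/ml; disease control (%) rated after 7 days in greenhouse.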
# Pyricularia oryzae = experiment: whole plant or invertebrate; format: in vivo; conditions: 100 is total disease control, 0 is no disease control; for Rice Blast (RB) protectant fungicide data, percent control: 300 g/ha, greenhouse
# Southern Armyworm = experiment: Protocol 1 Southern Armyworm (AW) foliar spray test; format: in vivo, Spodoptera eridania
# Method: (§1) A test solution containing 1250 parts per million (ppm) was prepared by dissolving the test compound in […] of a second solvent (acetone: water, 1:1) to give an acetone:water: methanol system of 50: 40:10.
# (§2) The enclosed spraying chamber consisted of a single spray nozzle mounted on a boom moving at a fixed speed and distance over stationary targets. The vertical distance from the nozzle tip to the targets was adjusted to give rates varying from 150 g/ha to 600 g/ha
# (§3) Individual fully expanded primary lima bean (Phaseolus limensis) leaves were placed bottom side up on moistened pieces of filter paper in Petri dishes. The leaves were sprayed with the test solutions and allowed to dry. The dishes were infested with 5 third instar larvae of the southern armyworm, covered with the lids, and held at 27° C. Armyworm control was rated by visual inspection after 48 hours. […] A rating of 0 indicated no dead larvae and normal feeding. Intermediate control was indicated by intermediate ratings.
# Mexican Bean Beetle = experiment: Protocol 1 Mexican Bean Beetle (BB) foliar spray test; format: in vivo, Epilachna verivestis; conditions: control rated after 48 hours (100 = all larvae dead)
# Method: as §1, §2
# as §3, with “mexican bean beetle,” for “southern armyworm,”, “Bean beetle” for “Armyworm”
# Two-Spotted Spider Mite = experiment: Protocol 1 Two-Spotted Spider Mite (MTA) foliar spray test; format: in vivo, Tetranychus urticae; conditions: percentage of mites killed 1-day post-treatment
# Method: as §1, §2
# A pad of moistened cotton was placed in a Petri dish. A 1-inch square section cut from a fully expanded primary lima bean (Phaseolus limensis) leaf was positioned bottom side up on the moist cotton. The leaf square was infested with approximately 50 adult female mites. The dishes were sprayed with the test solutions and held at 27° C. for mortality determination 1-day post-treatment. The percentage of mites killed were rated from 100% (all dead) to 0% (all alive).
Structure (SMILES),"Cucumber Powdery Mildew (CPM) protectant fungicide data, percent control (Sphaerotheca fuliginea)","Rice Blast (RB) protectant fungicide data, percent control (Pyricularia oryzae)","AW (Southern Armyworm; Protocol 1, DOSE 300)","BB (Mexican Bean Beetle; Protocol 1, DOSE 300)","MTA (Two-Spotted Spider Mite; Protocol 1, DOSE 300)","AW (Southern Armyworm; Protocol 1, DOSE 150)","BB (Mexican Bean Beetle; Protocol 1, DOSE 150)","MTA (Two-Spotted Spider Mite; Protocol 1, DOSE 150)","pest or weed control at 300 g/ha (Sphaerotheca fuliginea; Podosphaera fuliginea, topical, 168 h, read-out: Cucumber Powdery Mildew (CPM) protectant fungicide data, percent control)","pest or weed control at 300 g/ha (Pyricularia oryzae; Pyricularia oryzae, topical, 144 h, read-out: Rice Blast (RB) protectant fungicide data, percent control, protectant, 300 g/ha, greenhouse)"
C=CCn1nc(-c2ccc(Cl)cc2)ncc1=O [Compound 236],90 percent control,99 percent control,0,100,100%,–,–,–,–,–
COC1NC(c2ccc(Cl)cc2)=NN(CC(F)(F)F)C1=O (stereo not drawn) [Compound 26],95 percent control,100 percent control,0,50,0%,–,–,–,–,–
Cc1c(Cl)cc(-c2ncc(=O)n(CC(F)(F)F)n2)cc1Cl [Compound 253],50 percent control,100 percent control,–,–,–,0,0,100%,–,–
O=c1cnc(Cc2ccccc2)nn1CC(F)(F)F [Compound 249],0 percent control,85 percent control,–,–,–,100,0,90%,–,–
COc1cccc(-c2ncc(=O)n(CC(F)(F)F)n2)c1 [Compound 252],0 percent control,85 percent control,–,–,–,0,100,50%,–,–
O=C1CNC(c2cc(Cl)cc(Cl)c2)=NN1CC(F)(F)F [Compound 43],80 percent control,99 percent control,–,–,–,50,0,0%,–,–
O=c1cnc(-c2ccc(Cl)cc2)nn1CC(F)(F)F [Compound 233],80 percent control,100 percent control,50,75,0%,–,–,–,–,–
O=C1CNC(Cc2ccccc2)=NN1CC(F)(F)F [Compound 44],0 percent control,85 percent control,–,–,–,75,0,0%,–,–
O=C1CNC(c2ccc(Cl)cc2)=NN1c1ccccc1 [Compound 29],90 percent control,90 percent control,0,0,90%,–,–,–,–,–
CCn1nc(-c2ccc(Cl)cc2)ncc1=O [Compound 235],80 percent control,90 percent control,0,100,100%,–,–,–,–,–
O=C1CNC(c2ccccn2)=NN1CC(F)(F)F [Compound 52],0 percent control,50 percent control,–,–,–,0,0,100%,–,–
CC(C)(C)n1nc(-c2ccc(Cl)cc2)ncc1=O [Compound 241],0 percent control,50 percent control,0,0,100%,–,–,–,–,–
CN1CC(=O)N(CC(F)(F)F)N=C1c1ccccc1 [Compound 34],–,–,0,75,0%,–,–,–,–,–
CCC(C)n1nc(C2CCCCC2)ncc1=O (stereo not drawn) [Compound 255],0 percent control,50 percent control,–,–,–,0,90,100%,–,–
"CCC#CCn1nc(-c2ccc(Cl)cc2)ncc1=O [Compound 8, 1-(2-pentynyl)-3-(4-chlorophenyl)-1,2,4-triazin-6-one]",–,–,0,0,–,–,–,–,90%,99%
